Patent US9255094B2, “Pyrido[4,3-B]indoles and methods of use” (Medivation Technologies, Inc., priority 2009, dated 2016)

Experiments:
[1] = molecular target: T1, human recombinant serotonin (5-Hydroxytryptamine) 5-HT2C receptor (Homo sapiens, UniProt P28335); test: Serotonin 5-HT2C radioligand binding assay ([3H]Mesulergine); conditions: compound at 1 μM; 1 nM [3H]Mesulergine; CHO-K1 cells; read-out: Percent Inhibition of ligand binding, Serotonin (1 μM) 5-HT2C
T1 construct: expressed in transfected cells; host or cells: Chinese hamster ovary (CHO-K1) cells
T1 sequence (P28335 33-458): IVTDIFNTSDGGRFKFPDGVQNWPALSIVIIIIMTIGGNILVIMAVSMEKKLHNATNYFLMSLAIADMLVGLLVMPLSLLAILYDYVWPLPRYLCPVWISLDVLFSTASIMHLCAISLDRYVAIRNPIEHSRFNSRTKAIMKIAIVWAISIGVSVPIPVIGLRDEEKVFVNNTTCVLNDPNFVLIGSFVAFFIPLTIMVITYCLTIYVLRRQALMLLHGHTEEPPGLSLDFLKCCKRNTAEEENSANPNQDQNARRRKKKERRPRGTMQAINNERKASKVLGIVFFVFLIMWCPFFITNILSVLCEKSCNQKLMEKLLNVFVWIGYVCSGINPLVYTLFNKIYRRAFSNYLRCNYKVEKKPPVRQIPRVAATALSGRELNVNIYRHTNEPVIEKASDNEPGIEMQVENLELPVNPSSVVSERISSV
Protocol: Compounds of the invention were incubated with 1 nM [^3H]Mesulergine for 60 min at 25° C. Non-specific binding was estimated in the presence of 1 μM Mianserin. Receptor proteins were filtered and washed, the filters were then counted to determine [^3H]Mesulergine specifically bound. Compounds were screened at 1 μM or lower, using 1% DMSO as vehicle. Biochemical assay results are presented as the percent inhibition of specific binding in Table 4.

[2] = molecular target: T2, human recombinant histamine H2 receptor (Homo sapiens, UniProt P25021); test: Histamine H2 radioligand binding assay ([125I]Aminopotentidine); conditions: compound at 1 μM; 0.1 nM [125I]Aminopotentidine; receptor expressed in CHO-K1 cells
T2 construct: expressed in transfected cells; host or cells: Chinese hamster ovary (CHO) K1 cells
T2 sequence (P25021 whole entry): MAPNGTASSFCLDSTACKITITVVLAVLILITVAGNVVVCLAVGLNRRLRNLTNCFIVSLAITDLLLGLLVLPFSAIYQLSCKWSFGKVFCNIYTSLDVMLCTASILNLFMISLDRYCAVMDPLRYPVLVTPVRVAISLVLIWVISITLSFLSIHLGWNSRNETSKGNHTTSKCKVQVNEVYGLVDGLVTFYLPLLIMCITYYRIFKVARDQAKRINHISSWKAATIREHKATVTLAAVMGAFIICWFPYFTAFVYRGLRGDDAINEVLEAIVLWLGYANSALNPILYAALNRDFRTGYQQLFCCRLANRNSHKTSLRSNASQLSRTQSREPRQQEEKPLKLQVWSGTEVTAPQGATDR
Protocol: To evaluate in radioligand binding assays the activity of compounds of the invention, human recombinant histamine H2 receptor expressed in Chinese hamster ovary (CHO) K1 cells (Ruat, M., Proc. Natl. Acad. Sci. USA. 87(5):1658, 1990) in a 50 mM Phosphate buffer, pH 7.4 was used. Compounds of the invention were incubated with 0.1 nM [^125I]Aminopotentidine for 120 min at 25° C. Non-specific binding was estimated in the presence of 3 μM Tiotidine. Receptor proteins were filtered and washed, the filters were then counted to determine [^125I]Aminopotentidine specifically bound. Compounds were screened at 1 μM or lower, using 1% DMSO as vehicle. Biochemical assay results are presented as the percent inhibition of specific binding in Table 2.

[3] = molecular target: T3, human recombinant serotonin (5-Hydroxytryptamine) 5-HT6 receptor (Homo sapiens, UniProt P50406); test: Serotonin 5-HT6 radioligand binding assay ([3H]LSD); conditions: compound at 1 μM, HeLa cells, read-out: Percent Inhibition of ligand binding, Serotonin (1 μM) 5-HT6
T3 construct: expressed in transfected cells; host or cells: human HeLa cells
T3 sequence (P50406 whole entry): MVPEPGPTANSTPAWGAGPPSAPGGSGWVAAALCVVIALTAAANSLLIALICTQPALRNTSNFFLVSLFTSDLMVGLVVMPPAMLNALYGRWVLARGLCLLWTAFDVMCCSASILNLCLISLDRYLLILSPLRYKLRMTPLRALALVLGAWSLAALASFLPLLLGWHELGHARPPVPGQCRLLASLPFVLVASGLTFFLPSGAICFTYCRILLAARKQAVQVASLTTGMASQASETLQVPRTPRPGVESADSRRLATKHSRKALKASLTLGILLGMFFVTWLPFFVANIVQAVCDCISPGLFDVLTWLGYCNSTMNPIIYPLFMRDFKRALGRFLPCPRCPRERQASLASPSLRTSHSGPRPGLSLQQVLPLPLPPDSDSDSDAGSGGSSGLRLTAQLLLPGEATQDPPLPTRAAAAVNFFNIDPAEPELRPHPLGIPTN
Protocol: Compounds of the invention were incubated with 1.5 nM [3H]Lysergic acid diethylamide (LSD) for 120 min at 37° C. […] Receptor proteins were filtered and washed, the filters were then counted to determine [3H]LSD specifically bound. Compounds were screened at 1 μM or lower, using 1% DMSO as vehicle. Biochemical assay results are presented as the percent inhibition of specific binding in Table 4.

[4] = molecular target: human recombinant dopamine D2L receptor (Homo sapiens, UniProt P14416); test: Dopamine D2L radioligand binding assay ([3H]Spiperone); conditions: compound at 1 μM, 0.16 nM [3H]Spiperone, CHO cells, read-out: Percent Inhibition of ligand binding, Dopamine (1μM)
Chain of human recombinant dopamine D2L receptor (P14416 whole entry): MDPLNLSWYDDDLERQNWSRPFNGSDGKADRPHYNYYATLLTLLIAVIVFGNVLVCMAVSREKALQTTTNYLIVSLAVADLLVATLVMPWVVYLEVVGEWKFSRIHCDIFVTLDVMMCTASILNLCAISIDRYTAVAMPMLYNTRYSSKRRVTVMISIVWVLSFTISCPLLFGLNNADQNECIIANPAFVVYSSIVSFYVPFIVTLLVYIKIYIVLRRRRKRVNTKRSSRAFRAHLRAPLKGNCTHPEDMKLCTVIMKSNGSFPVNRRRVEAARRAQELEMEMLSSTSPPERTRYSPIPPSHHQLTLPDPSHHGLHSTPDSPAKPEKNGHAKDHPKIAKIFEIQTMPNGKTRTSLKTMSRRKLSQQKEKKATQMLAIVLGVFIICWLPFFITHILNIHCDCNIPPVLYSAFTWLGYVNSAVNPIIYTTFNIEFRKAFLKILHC
How it was run: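 Test compounds at 1 μM or lower (1% DMSO vehicle) incubated with 0.16 nM [3H]Spiperone for 120 min at 25 °C; nonspecific binding defined with 10 μM haloperidol. Filtration and counting of bound radioligand; values given as percent inhibition of specific binding.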

Structure (SMILES) | inhibition at 1 µM [1] [%] | inhibition at 1 µM [2] [%] | inhibition at 1 µM [3] [%] | inhibition at 1 µM [4] [%]
CN1CCc2c(c3cc(Cl)ccc3n2CC(=O)c2ccc(F)cc2)C1 [Compound 1-37, 2-(8-chloro-2-methyl-3,4-dihydro-1H-pyrido[4,3-b]indol-5(2H)-yl)-1-(4-fluorophenyl)ethanone] | 97 | 80 | 71 | 85
CN1CCc2c(c3cc(Cl)ccc3n2CC(=O)c2ccc(Cl)cc2)C1 [Compound 1-38, 2-(8-chloro-2-methyl-3,4-dihydro-1H-pyrido[4,3-b]indol-5(2H)-yl)-1-(4-chlorophenyl)ethanone] | 101 | 56 | 57 | 44
Cc1ccc2c(c1)c1c(n2CC(=O)c2ccc(F)cc2)CCN(C)C1 [Compound 1-39, 2-(2,8-dimethyl-3,4-dihydro-1H-pyrido[4,3-b]indol-5(2H)-yl)-1-(4-fluorophenyl)ethanone] | 104 | 66 | 62 | 57
Cc1ccc2c(c1)c1c(n2CCc2ccc(CCCN)nc2)CCN(C)C1 [Compound 1-40, 3-(5-(2-(2,8-dimethyl-3,4-dihydro-1H-pyrido[4,3-b]indol-5(2H)-yl)ethyl)pyridin-2-yl)propan-1-amine] | 91 | 18 | 24 | 3
Cc1ccc2c(c1)c1c(n2CCc2ccc(C(F)(F)F)nc2)CCNC1 [Compound 1-41, 8-methyl-5-(2-(6-(trifluoromethyl)pyridin-3-yl)ethyl)-2,3,4,5-tetrahydro-1H-pyrido[4,3-b]indole] | 41 | 6 | 14 | -8
Cc1ccc2c(c1)c1c(n2CCc2ccc(C)nc2)CCN(CCCO)C1 [Compound 1-42, 3-(8-methyl-5-(2-(6-methylpyridin-3-yl)ethyl)-3,4-dihydro-1H-pyrido[4,3-b]indole-2(5H)-yl)propan-1-ol] | 90 | 16 | 43 | 11
